In patent US12459974B2, “Bicyclic peptide ligands specific for Nectin-4” (priority 2018, dated 2025):
Like-named read-outs stand apart in the source and are kept apart here. *1 amine or outer side, *2 acyl side, *3 side chain or, on linkers, in order; H or OH if unused. Where a SMILES comes first, the peptide text is derived from it. Bridges are numbered along the chain shown (N, C = ends). [ ]: non-standard residue; d: D form. TATA = O=C(CC[*:1])N1CN(C(=O)CC[*:2])CN(C(=O)CC[*:3])C1; 1Nal = N[C@@H](Cc1cccc2ccccc12)C(=O)O; NMeT = CN[C@H](C(=O)O)[C@@H](C)O; hArg = N=C(N)NCCCC[C@H](N)C(=O)O

Target: T1, human Nectin-4 (Homo sapiens, UniProt Q96NY8)
T1 sequence (Q96NY8 32-510): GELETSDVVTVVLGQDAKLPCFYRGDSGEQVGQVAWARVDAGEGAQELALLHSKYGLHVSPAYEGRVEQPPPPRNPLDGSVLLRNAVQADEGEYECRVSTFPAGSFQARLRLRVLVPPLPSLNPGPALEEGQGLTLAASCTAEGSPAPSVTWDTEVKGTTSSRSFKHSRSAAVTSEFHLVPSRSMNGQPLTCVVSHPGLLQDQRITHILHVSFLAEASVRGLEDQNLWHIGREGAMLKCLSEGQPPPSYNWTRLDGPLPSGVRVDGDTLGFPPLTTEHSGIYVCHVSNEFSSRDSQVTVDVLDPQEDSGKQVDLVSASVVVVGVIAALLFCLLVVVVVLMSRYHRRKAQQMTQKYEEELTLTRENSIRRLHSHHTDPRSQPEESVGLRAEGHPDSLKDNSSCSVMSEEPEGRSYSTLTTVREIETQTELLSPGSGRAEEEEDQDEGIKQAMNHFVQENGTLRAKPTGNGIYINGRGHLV
Assay: Nectin-4 competition binding assay (fluorescence polarisation)
Outline: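 Serially diluted (1 in 2) peptides, max 5% DMSO, were mixed with human Nectin-4 and a fluorescent tracer peptide; FP read as in the direct binding assay. Ki from fitting mP values to a cubic competition equation using tracer concentration, tracer Kd and Nectin-4 concentration.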

[1] = competition with fluorescent peptide SEQ ID NO: 217, read-out: Ki

Row | SMILES | Ki | Ki [1]
1 | CC[C@H](C)[C@@H]1NC(=O)[C@@H]2CCCN2C(=O)[C@H](Cc2c[nH]c3ccccc23)NC(=O)[C@H](CO)NC(=O)[C@H](Cc2c[nH]c3ccccc23)NC(=O)[C@H](CC(=O)O)NC(=O)[C@H](CCCCN)NC(=O)[C@H](CCSC)NC(=O)[C@@H]2CSCCC(=O)N3CN(CN(C3)C(=O)CCSC[C@H](NC(C)=O)C(=O)N3CCC[C@H]3C(=O)N[C@@H](Cc3ccccc3)C(=O)NCC(=O)N2)C(=O)CCSC[C@@H](C(N)=O)NC(=O)[C@H](Cc2c[nH]c3ccccc23)NC1=O [BCY7661, Ac-(SEQ ID NO: 15)] (Ac-CPFGCMKDWSWPIWC-NH2; linker 1-5-15 via TATA; C-terminus assumed) | 29.4 nM | –
2 | CC[C@H](C)[C@@H]1NC(=O)[C@@H]2CCCN2C(=O)[C@H](Cc2c[nH]c3ccccc23)NC(=O)[C@H](CO)NC(=O)[C@H](Cc2c[nH]c3ccccc23)NC(=O)[C@H](Cc2c[nH]cn2)NC(=O)[C@H](CCCCN)NC(=O)[C@H](CCSC)NC(=O)[C@@H]2CSCCC(=O)N3CN(CN(C3)C(=O)CCSC[C@H](NC(C)=O)C(=O)N3CCC[C@H]3C(=O)N[C@@H](Cc3ccccc3)C(=O)NCC(=O)N2)C(=O)CCSC[C@@H](C(N)=O)NC(=O)[C@H](Cc2c[nH]c3ccccc23)NC1=O [BCY7662, Ac-(SEQ ID NO: 16)] (Ac-CPFGCMKHWSWPIWC-NH2; linker 1-5-15 via TATA; C-terminus assumed) | – | 14.8 nM
3 | CC[C@H](C)[C@@H]1NC(=O)[C@@H]2CCCN2C(=O)[C@H](Cc2c[nH]c3ccccc23)NC(=O)[C@H](CO)NC(=O)[C@H](Cc2cccc3ccccc23)NC(=O)[C@H](CC(N)=O)NC(=O)[C@H](CCCCN)NC(=O)[C@H](CCSC)NC(=O)[C@@H]2CSCCC(=O)N3CN(CN(C3)C(=O)CCSC[C@H](NC(C)=O)C(=O)N3CCC[C@H]3C(=O)N[C@@H](Cc3ccccc3)C(=O)NCC(=O)N2)C(=O)CCSC[C@@H](C(N)=O)NC(=O)[C@H](Cc2c[nH]c3ccccc23)NC1=O [BCY7663, Ac-(SEQ ID NO: 111)] | – | 25.5 nM
4 | CC[C@H](C)[C@@H]1NC(=O)[C@@H]2CCCN2C(=O)[C@H]([C@@H](C)O)NC(=O)[C@H](CO)NC(=O)[C@H](Cc2c[nH]c3ccccc23)NC(=O)[C@H](CC(N)=O)NC(=O)[C@H](CCCCN)NC(=O)[C@H](CCSC)NC(=O)[C@@H]2CSCCC(=O)N3CN(CN(C3)C(=O)CCSC[C@H](NC(C)=O)C(=O)N3CCC[C@H]3C(=O)N[C@@H](Cc3ccccc3)C(=O)NCC(=O)N2)C(=O)CCSC[C@@H](C(N)=O)NC(=O)[C@H](Cc2c[nH]c3ccccc23)NC1=O [BCY7665, Ac-(SEQ ID NO: 19)] (Ac-CPFGCMKNWSTPIWC-NH2; linker 1-5-15 via TATA; C-terminus assumed) | – | 24.1 nM
5 | CC[C@H](C)[C@@H]1NC(=O)[C@@H]2CCCN2C(=O)[C@H]([C@@H](C)O)NC(=O)[C@H](CO)NC(=O)[C@H](Cc2c[nH]c3ccccc23)NC(=O)[C@H](CCCCN)NC(=O)[C@H](CCCCNC(=N)N)NC(=O)[C@H](CCSC)NC(=O)[C@@H]2CSCCC(=O)N3CN(CN(C3)C(=O)CCSC[C@H](NC(C)=O)C(=O)N3CCC[C@H]3C(=O)N[C@@H](Cc3ccccc3)C(=O)N[C@H](CC(=O)O)C(=O)N2)C(=O)CCSC[C@@H](C(N)=O)NC(=O)[C@H](Cc2c[nH]c3ccccc23)NC1=O [BCY7822, Ac-(SEQ ID NO: 122)] | – | 27 nM
6 | CC[C@H](C)[C@@H]1NC(=O)[C@@H]2CCCN2C(=O)[C@H]([C@@H](C)O)NC(=O)[C@H](CO)NC(=O)[C@H](Cc2c[nH]c3ccccc23)NC(=O)[C@H](CC(N)=O)NC(=O)[C@H](CCCCNC(=N)N)NC(=O)[C@H](CCSC)NC(=O)[C@@H]2CSCCC(=O)N3CN(CN(C3)C(=O)CCSC[C@H](NC(C)=O)C(=O)N3CCC[C@H]3C(=O)N[C@@H](Cc3ccccc3)C(=O)N[C@H](CCC(=O)O)C(=O)N2)C(=O)CCSC[C@@H](C(N)=O)NC(=O)[C@H](Cc2c[nH]c3ccccc23)NC1=O [BCY7903, Ac-(SEQ ID NO: 140)] | – | 41 nM
7 | CC[C@H](C)[C@@H]1NC(=O)[C@@H]2CCCN2C(=O)[C@H]([C@@H](C)O)NC(=O)[C@H](CO)NC(=O)[C@H](Cc2c[nH]c3ccccc23)NC(=O)[C@H](CC(N)=O)NC(=O)[C@H](CCCCNC(=N)N)NC(=O)[C@H](CCSC)NC(=O)[C@@H]2CSCCC(=O)N3CN(CN(C3)C(=O)CCSC[C@H](NC(C)=O)C(=O)N3CCC[C@H]3C(=O)N[C@@H](Cc3ccccc3)C(=O)N[C@H](CO)C(=O)N2)C(=O)CCSC[C@@H](C(N)=O)NC(=O)[C@H](Cc2c[nH]c3ccccc23)NC1=O [BCY7907, Ac-(SEQ ID NO: 143)] | – | 10 nM
8 | CC[C@H](C)[C@@H]1NC(=O)[C@@H]2CCCN2C(=O)[C@H]([C@@H](C)O)N(C)C(=O)[C@H](CO)NC(=O)[C@H](Cc2c[nH]c3ccccc23)NC(=O)[C@H](CC(N)=O)NC(=O)[C@H](CCCCNC(=N)N)NC(=O)[C@@H]2CSCCC(=O)N3CN(CN(C3)C(=O)CCSC[C@H](NC(C)=O)C(=O)N3CCC[C@H]3C(=O)N[C@@H](Cc3ccccc3)C(=O)N[C@H](CC(=O)O)C(=O)N2)C(=O)CCSC[C@@H](C(N)=O)NC(=O)[C@H](Cc2c[nH]c3ccccc23)NC1=O [BCY7979, Ac-(SEQ ID NO: 152)] (Ac-CPF[dD]C[hArg]NWS[NMeT]PIWC-NH2; linker 1-5-14 via TATA; C-terminus assumed) | – | 191 nM
9 | CC[C@H](C)[C@@H]1NC(=O)[C@H](CCCNC(=N)N)NC(=O)[C@H](CC(N)=O)NC(=O)[C@@H]2CSCCC(=O)N3CN(CN(C3)C(=O)CCSC[C@H](NC(=O)[C@H](Cc3c[nH]c4ccccc34)NC(=O)[C@H](CCCCN)NC(=O)[C@H](CCC(N)=O)NC(C)=O)C(=O)N[C@@H](C)C(=O)N3CCC[C@H]3C(=O)N[C@@H](CC(C)C)C(=O)N[C@@H](CO)C(=O)N[C@@H](CC(=O)O)C(=O)N[C@@H](Cc3ccc(O)cc3)C(=O)N[C@@H](Cc3cccc4ccccc34)C(=O)N2)C(=O)CCSC[C@@H](C(N)=O)NC1=O [BCY7998, Ac-QKW-(SEQ ID NO: 153)] (Ac-QKWCAPLSDY[1Nal]CNRIC-NH2; linker 4-12-16 via TATA; C-terminus assumed) | – | 135 nM
10 | CC[C@H](C)[C@@H]1NC(=O)[C@@H]2CCCN2C(=O)[C@H]([C@@H](C)O)NC(=O)[C@H](CO)NC(=O)[C@H](Cc2c[nH]c3ccccc23)NC(=O)[C@H](CC(N)=O)NC(=O)[C@H](CCCCNC(=N)N)NC(=O)[C@H](CCSC)NC(=O)[C@@H]2CSCCC(=O)N3CN(CN(C3)C(=O)CCSC[C@H](NC(=O)[C@H](CC(=O)O)NC(=O)[C@H](CC(=O)O)NC(=O)[C@H](CC(=O)O)NC(C)=O)C(=O)N3CCC[C@H]3C(=O)N[C@@H](Cc3ccccc3)C(=O)N[C@H](CC(=O)O)C(=O)N2)C(=O)CCSC[C@@H](C(N)=O)NC(=O)[C@H](Cc2c[nH]c3ccccc23)NC1=O [BCY8028, Ac-DDD-(SEQ ID NO: 115)] | – | 61.9 nM
11 | CC[C@H](C)[C@@H]1NC(=O)[C@@H]2CCCN2C(=O)[C@H]([C@@H](C)O)NC(=O)[C@H](CO)NC(=O)[C@H](Cc2c[nH]c3ccccc23)NC(=O)[C@H](CC(N)=O)NC(=O)[C@H](CCCCNC(=N)N)NC(=O)[C@H](CC(C)C)NC(=O)[C@@H]2CSCCC(=O)N3CN(CN(C3)C(=O)CCSC[C@H](NC(C)=O)C(=O)N3CCC[C@H]3C(=O)N[C@@H](Cc3ccccc3)C(=O)N[C@H](CC(=O)O)C(=O)N2)C(=O)CCSC[C@@H](C(N)=O)NC(=O)[C@H](Cc2c[nH]c3ccccc23)NC1=O [BCY8039, Ac-(SEQ ID NO: 161)] (Ac-CPF[dD]CL[hArg]NWSTPIWC-NH2; linker 1-5-15 via TATA; C-terminus assumed) | – | 21.4 nM
